Measurements published in publication PMC6267619, “Isolation of Betulinic Acid, its Methyl Ester and Guaiane Sesquiterpenoids with Protein Tyrosine Phosphatase 1B Inhibitory Activity from the Roots of Saussurea lappa C.B.Clarke” (Molecules, 2008).
In brackets after ≈: the same amount, converted by molar mass. Several values for one entry are separate records, joined by “and”; a condition that tells them apart may be missing. Identical values can stand only once.

Molecular target: T1, PTP1B (human, recombinant) (Homo sapiens, UniProt P18031)
T1 construct: purchased BIOMOL International LP (Plymouth Meeting, PA)
T1 sequence (P18031 1-435): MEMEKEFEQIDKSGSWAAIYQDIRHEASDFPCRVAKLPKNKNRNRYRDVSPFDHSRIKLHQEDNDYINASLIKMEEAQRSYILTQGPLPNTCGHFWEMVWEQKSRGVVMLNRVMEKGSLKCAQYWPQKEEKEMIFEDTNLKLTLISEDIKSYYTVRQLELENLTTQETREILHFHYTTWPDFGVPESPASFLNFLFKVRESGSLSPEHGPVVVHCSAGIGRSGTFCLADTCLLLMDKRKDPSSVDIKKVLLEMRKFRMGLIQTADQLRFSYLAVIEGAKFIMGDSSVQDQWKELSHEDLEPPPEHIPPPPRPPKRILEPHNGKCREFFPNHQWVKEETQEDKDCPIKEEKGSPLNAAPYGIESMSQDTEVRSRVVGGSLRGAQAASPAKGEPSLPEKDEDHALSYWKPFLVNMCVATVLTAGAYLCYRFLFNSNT
Test: PTP1B inhibition assay with pNPP as substrate
Type: biochemical
Conditions: for inhibition at 30 µg/mL / Inhibition % of PTP1B activity: at 30 μg/mL; for IC50: read-out: IC50 (PTP1B inhibitory activity) (converted)
Method: PTP1B (human, recombinant) was purchased from BIOMOL® International LP (Plymouth Meeting, PA). The enzyme activity was measured using p-nitrophenyl phosphate (pNPP) as a substrate. To each of 96 wells in a microtiter plate (final volume: 100 μL) was added 2 mM pNPP and PTP1B (0.05-0.1 μg) in a buffer containing 50 mM citrate (pH 6.0), 0.1 M NaCl, 1 mM EDTA, and 1 mM dithiothreitol (DTT) with or without test compounds. Following incubation at 37°C for 30 min, the reaction was terminated with 10 M NaOH. The amount of produced p-nitrophenol was estimated by measuring the absorbance at 405 nm. The non-enzymatic hydrolysis of 2 mM pNPP was corrected by measuring the increase in absorbance at 405 nm obtained in the absence of PTP1B enzyme.

[1] = na = not active (less than 50% inhibition at the level of 30 μg/mL)

| inhibition at 30 µg/mL [%] | Structure (SMILES) | other results |
| --- | --- | --- |
| 95.1 | C=C(C)[C@@H]1CC[C@]2(C(=O)O)CC[C@]3(C)[C@H](CC[C@@H]4[C@@]5(C)CC[C@H](O)C(C)(C)[C@@H]5CC[C@]43C)[C@@H]12 [Compound 1, betulinic acid] | IC50 [1]: 1.53 µM |
| 93.1 | C=C1CC[C@H]2C(=C)CC[C@@H]3[C@H](OC(=O)[C@H]3C)[C@@H]12 [Compound 3, mokko lactone] | IC50 [1]: 6.07 µM and 6.03 µM |
| 86.2 | C=C1CC[C@H]2C(=C)CC[C@H]3C(=C)C(=O)O[C@@H]3[C@@H]12 [Compound 4, dehydrocostuslactone] | IC50 [1]: 28.3 µM and 28.2 µM |
| < 50 | C=C1C(=O)O[C@@H]2/C=C(\C)CC/C=C(\C)CC[C@@H]12 [Compound 5, costunolide] | – |
| < 50 | C/C1=C\[C@H]2OC(=O)[C@@H](C)[C@@H]2CC/C(C)=C/CC1 [Compound 6, 11β,13-dihydrocostunolide] | – |
| < 50 | C=C1CC[C@@H](O)[C@]2(C)CC[C@H]3C(=C)C(=O)O[C@@H]3[C@@H]12 [Compound 7, reynosin] | – |
| < 50 | C=C1C(=O)O[C@@H]2[C@@H]3[C@@](C)(CC[C@@H]12)[C@H](O)CC[C@@]3(C)O [Compound 8, 1β-hydroxy arbusculin A] | – |
| < 50 | C=C1C(=O)O[C@@H]2[C@H]3C(C)=CC[C@@H](O)[C@]3(C)CC[C@@H]12 [Compound 9, santamarine] | – |
| – | C=CCCCCC/C=C\C/C=C\C/C=C\CC [Compound 12, aplotaxene] | Inhibition % of PTP1B activity: < 50.0% |
| – | CCCCCCCCCCCCCCCCCC(=O)O[C@H]1CC[C@]2(C)[C@H]3CC=C4[C@@H]5[C@@H](C)[C@H](C)CC[C@]5(C)CC[C@@]4(C)[C@]3(C)CC[C@H]2C1(C)C [Compound 13, α-amyrin stearate] | Inhibition % of PTP1B activity: < 50.0% |
| – | CCCCCCCCCCCCCCCC(=O)C1=C(O)C(CO)OC1=O (stereo not shown) [RK-682, reference compound] | Inhibition % of PTP1B activity: 98.5%; IC50 (PTP1B inhibitory activity) [1]: 1.2 ± 0.09 µg/mL (≈ 3.26 µM) |
| 99 | C[C@H]1[C@H](C)CC[C@]2(C(=O)O)CC[C@]3(C)C(=CC[C@@H]4[C@@]5(C)CC[C@H](O)C(C)(C)[C@@H]5CC[C@]43C)[C@H]12 [Ursolic acid, reference compound] | – |

| Structure (SMILES) | inhibition at 30 µg/mL [%] | other results |
| --- | --- | --- |
| C=C(C)[C@@H]1CC[C@]2(C(=O)OC)CC[C@]3(C)[C@H](CC[C@@H]4[C@@]5(C)CC[C@H](O)C(C)(C)[C@@H]5CC[C@]43C)[C@@H]12 [Compound 2, betulinic acid methyl ester] | 89.4 | IC50 [1]: 1.98 µM and 1.91 µM |
| CC[C@H](CC[C@@H](C)[C@H]1CC[C@H]2[C@@H]3CC=C4C[C@@H](O)CC[C@]4(C)[C@H]3CC[C@]12C)C(C)C [Compound 11, β-sitosterol] | < 50 | – |
